Source: US11472792B2, “Herbicidal mixtures” (SYNGENTA CROP PROTECTION AG, priority 2019, dated 2022)

Assays:
Type in all cases: in vivo
Zea mays (ZEAMX) [1] = experiment: Herbicidal efficacy, pre-emergence application (glasshouse); settings: Zea mays, 312 h, evaluated visually after 13 days, 100=total damage, 0=no damage, read-out: percentage phytotoxicity to the plant, ZEAMX
Protocol: (§1) Seeds of a variety of test species [Ipomoea hederacea (IPOHE); Zea mays (ZEAMX); Echinochloa crus-galli (ECHCG); Setaria faberi (SETFA); Abutilon theophrasti (ABUTH); Amaranthus retroflexus (AMARE)] were sown in standard sterilised soil in pots. After cultivation for one day (pre-emergence) or after 8 days cultivation (post-emergence) under controlled conditions in a glasshouse (at 24/16° C., day/night; 14 hours light; 65% humidity), the plants were sprayed with an aqueous spray solution derived from the formulation of the technical active ingredient in acetone/water (50:50) solution containing 0.5% Tween 20 (polyoxyethelyene sorbitan monolaurate, CAS RN 9005-64-5), subsequently diluted in water, and sprayed to give the stated application rate.
(§2) The test plants were then grown under controlled conditions in a glasshouse (at 24/16° C., day/night; 14 hours light; 65% humidity) and watered twice daily.
(§3) After 13 days for pre and post-emergence, the test was evaluated visually for percentage phytotoxicity to the plant (where 100=total damage to plant; 0=no damage to plant).

[2] = system: Abutilon theophrasti (ABUTH); experiment: as above; settings: Abutilon theophrasti, 312 h, evaluated visually after 13 days, 100=total damage, 0=no damage, read-out: percentage phytotoxicity to the plant, ABUTH
Protocol: as §1, §2, §3

[3] = system: Ipomoea hederacea (IPOHE); experiment: as above; settings: Ipomoea hederacea, 312 h, evaluated visually after 13 days, 100=total damage, 0=no damage, read-out: percentage phytotoxicity to the plant, IPOHE
Protocol: as §1, §2, §3

[4] = system: Echinochloa crus-galli (ECHCG); experiment: as above; settings: Echinochloa crus-galli, 312 h, evaluated visually after 13 days, 100=total damage, 0=no damage, read-out: percentage phytotoxicity to the plant, ECHCG
Protocol: as §1, §2, §3

[5] = system: Amaranthus retroflexus (AMARE); experiment: as above; settings: Amaranthus retroflexus, 312 h, evaluated visually after 13 days, 100=total damage, 0=no damage, read-out: percentage phytotoxicity to the plant, AMARE
Protocol: as §1, §2, §3

Setaria faberi (SETFA) [6] = experiment: as above; settings: Setaria faberi, 312 h, evaluated visually after 13 days, 100=total damage, 0=no damage, read-out: percentage phytotoxicity to the plant, SETFA
Protocol: as §1, §2, §3

Zea mays (ZEAMX) [7] = experiment: Herbicidal efficacy, post-emergence application (glasshouse); settings: Zea mays, 312 h, evaluated visually after 13 days, 100=total damage, 0=no damage, read-out: percentage phytotoxicity to the plant, ZEAMX
Protocol: as §1, §2, §3

[8] = system: Abutilon theophrasti (ABUTH); experiment: as above; settings: Abutilon theophrasti, 312 h, evaluated visually after 13 days, 100=total damage, 0=no damage, read-out: percentage phytotoxicity to the plant, ABUTH
Protocol: as §1, §2, §3

[9] = system: Ipomoea hederacea (IPOHE); experiment: as above; settings: Ipomoea hederacea, 312 h, evaluated visually after 13 days, 100=total damage, 0=no damage, read-out: percentage phytotoxicity to the plant, IPOHE
Protocol: as §1, §2, §3

[10] = system: Echinochloa crus-galli (ECHCG); experiment: as above; settings: Echinochloa crus-galli, 312 h, evaluated visually after 13 days, 100=total damage, 0=no damage, read-out: percentage phytotoxicity to the plant, ECHCG
Protocol: as §1, §2, §3

[11] = system: Amaranthus retroflexus (AMARE); experiment: as above; settings: Amaranthus retroflexus, 312 h, evaluated visually after 13 days, 100=total damage, 0=no damage, read-out: percentage phytotoxicity to the plant, AMARE
Protocol: as §1, §2, §3

Setaria faberi (SETFA) [12] = experiment: as above; settings: Setaria faberi, 312 h, evaluated visually after 13 days, 100=total damage, 0=no damage, read-out: percentage phytotoxicity to the plant, SETFA
Protocol: as §1, §2, §3

Structure (SMILES)	plant injury at 250 g/ha (Zea mays (ZEAMX) [1]) [%]	pest or weed control at 250 g/ha [2] [%]	pest or weed control at 250 g/ha [3] [%]	pest or weed control at 250 g/ha [4] [%]	pest or weed control at 250 g/ha [5] [%]	pest or weed control at 250 g/ha (Setaria faberi (SETFA) [6]) [%]	plant injury at 250 g/ha (Zea mays (ZEAMX) [7]) [%]	pest or weed control at 250 g/ha [8] [%]	pest or weed control at 250 g/ha [9] [%]	pest or weed control at 250 g/ha [10] [%]	pest or weed control at 250 g/ha [11] [%]	pest or weed control at 250 g/ha (Setaria faberi (SETFA) [12]) [%]
CN1C[C@H](c2cc(C(F)(F)F)n(C)n2)[C@@H](C(=O)Nc2cccc(F)c2OC(F)(F)F)C1=O [Compound 2.4, (3S,4R)-N-[3-fluoro-2-(trifluoromethoxy)phenyl]-1-methyl-4-[1-methyl-5-(trifluoromethyl)pyrazol-3-yl]-2-oxo-pyrrolidine-3-carboxamide]	30	0	50	90	0	90	0	0	0	70	0	70
CN1C[C@H](c2cc(C(F)(F)F)n(C)n2)[C@@H](C(=O)Nc2cccc(F)c2C(F)(F)F)C1=O [Compound 2.5, (3S,4R)-N-[3-fluoro-2-(trifluoromethyl)phenyl]-1-methyl-4-[1-methyl-5-(trifluoromethyl)pyrazol-3-yl]-2-oxo-pyrrolidine-3-carboxamide]	20	0	10	90	0	90	10	0	0	80	30	80
